Results reported in US6071913A, “Angiotensin II receptor antagonistic 1,2,4-triazin-5-one derivatives” (Development Center for Biotechnology, priority 1997, dated 2000).

molecular target: T1, Angiotensin II Type I Receptor (Homo sapiens, UniProt P30556); assay: Binding affinity to Angiotensin II receptor ([125I]-Sar1,Ile8-Angiotensin II radioligand, Angiotensin II Type I Receptor Kit NED-014); conditions: concentration of compound corresponding to 50% inhibition; EBDA software, inhibition at 7 different concentrations; 3 hours incubation; read-out: IC50
T1 construct: purchased NEN Research Products NED-014
T1 sequence (P30556 1-359): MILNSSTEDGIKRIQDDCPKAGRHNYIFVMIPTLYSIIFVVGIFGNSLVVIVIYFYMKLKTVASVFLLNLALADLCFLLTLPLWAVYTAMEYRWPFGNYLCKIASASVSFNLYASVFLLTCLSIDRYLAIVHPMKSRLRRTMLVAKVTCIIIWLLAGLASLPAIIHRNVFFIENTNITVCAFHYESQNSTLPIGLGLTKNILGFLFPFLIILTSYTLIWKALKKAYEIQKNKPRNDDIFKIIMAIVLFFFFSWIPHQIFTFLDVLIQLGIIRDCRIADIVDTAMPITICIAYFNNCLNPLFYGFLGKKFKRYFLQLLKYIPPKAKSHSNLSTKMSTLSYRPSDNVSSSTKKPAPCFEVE
Description: The binding affinity of the compounds of the above Examples I to IX to angiotensin II receptor was tested. The procedures and results are as follows:
Assay for the Binding Affinity to Angiotensin II Receptor
The antagonistic activity of angiotensin II receptor was assayed by Angiotensin II Type I Receptor Kit (NED-014 NENQUEST Drug Discovery System, NEN Research Products, Massachusettes, USA). The kit comprises Angiotensin II Type I Receptor Concentrate, radioligand [^125 I]-Sar^1,Ile^8 -Angiotensin II Concentrate (5 Ci), Standard Concentrate (DuP 753, […]), Diluent Concentrate, and Filter-Soak Concentrate. In accordance with the manual of
NED-014 kit, the Radioligand Concentrate, Receptor Concentrate and Filter-Soak Concentrate were diluted with deionized water, and stored under suitable temperatures (-70° C. or ambient temperature).
1. Filter Device: Hoefer FH 224 V, Hoefer Scientific Instruments Inc., California, USA; Vacuum pressure=15 in. Hg.
2. γ-Counter: Beckman 5500, Beckman Instruments Inc., […]., USA.
The reagents were thawed on ice on the day of assays. Two sets of tubes, each with two tubes, were used, one for non-specific binding (NSB) and the other for total binding (TB). A series of standard solutions (with the final concentrations of 0.5, 1, 2, 5, 10, 20, 50 and 100 nM) were prepared. The tested compounds were dissolved and diluted to 500 nM for preliminary screening. […] To the NSB tubes were added 25 μL Standard Concentrate solutions, to the TB tubes were added 25 μL Diluent Concentration, and to other tubes were added 25 μL the solutions of tested compounds. Then, 25 μL radioligand were added to each tube (including the two tubes for total counts, TC). The two TC tubes were used later for the determination of the dosage of radioligand added to each tube. To the rest tubes, 200 μL Receptor Concentration solutions were added. The tubes were allowed to stand for 3 hours to reach equibilium completely. Filter papers (Sigma Catalog No. 1822024) were soaked in the Filter-Soak solution, and placed in the filter device. The contents in the tubes were poured onto the filter papers, and washed with saline twice. The slightly dry filter papers were placed into the γ-counter and counted with two minutes counter.
The data are expressed as counts per minute (CPM). Net CPM for Specific Binding of standards or tested compounds is defined as the CPM thereof minus that of NSP and calculated by equation 1:
CPMnet =CPMtested compounds or standard -CPMnon-specific
With the above equation, the Net CPM for Specific Binding of tested compounds and standards can be obtained.
Inhibition (% B/B0) is defined as the net CPM for Specific Binding over that of standard at 0 concentration and calculated by equation 2:
Inhibition (% B/B0) of tested compound=CPMnet of standard at 0
IC50 is defined as the concentration of compound corresponding 50% inhibition. IC50 of tested compounds can be obtained with EBDA software by calculating the inhibition (% B/B0) of the tested compounds at 7 different concentrations. In addition, as the binding activity of a series of compounds is correlated with receptors, IC50 of the tested compounds can also be obtained by equation 3 established from known IC50 and inhibition (% B/B0) of the series compounds: […]

SMILES	IC50 [nM]
CCCCc1nc(=O)c(CCc2ccccc2)nn1Cc1ccc(-c2ccccc2-c2nnn[nH]2)cc1 [S, 6-(2'-phenylethyl)-3-butyl-5-oxo-2-[[2'-(1H-tetrazol-5-yl)biphenyl-4-yl]methyl]-1,2,4-triazine]	67.5
CCCCc1nc(=O)c(-c2ccccc2)nn1Cc1ccc(-c2ccccc2-c2nnn[nH]2)cc1 [N, 6-phenyl-3-butyl-5-oxo-2-[[2'-(1H-tetrazol-5-yl)biphenyl-4-yl]methyl]-1,2,4-triazine]	336
CCCCc1nnc(CCc2ccccc2)c(=O)n1Cc1ccc(-c2ccccc2-c2nnn[nH]2)cc1 [T, 6-(2'-phenylethyl)-3-butyl-5-oxo-4-[[2'-(1H-tetrazol-5-yl)biphenyl-4-yl]methyl]-1,2,4-triazine]	55.1

same assay, conditions: marked * Calculated; read-out: IC50 (*Calculated)

SMILES	IC50 [nM]
CCCCc1nc(Cl)c(CCc2ccccc2)c(=O)n1Cc1ccc(-c2ccccc2-c2nnn[nH]2)cc1 [V, 2-butyl-5-(2'-phenylethyl)-6-chloro-3-[[2'-(1H-tetrazol-5-yl)biphenyl-4-yl]methyl]-4(3H)-pyrimidinone]	72
CCCCc1nnc(C)c(=O)n1Cc1ccc(-c2ccccc2-c2nnn[nH]2)cc1 [L, 6-methyl-3-butyl-5-oxo-4-[[2'-(1H-tetrazol-5-yl)biphenyl-4yl]methyl]-1,2,4-triazine]	310
CCCCc1nnc(-c2ccccc2)c(=O)n1Cc1ccc(-c2ccccc2-c2nnn[nH]2)cc1 [O, 6-phenyl-3-butyl-5-oxo-4-[[2'-(1H-tetrazol-5-yl)biphenyl-4-yl]methyl]-1,2,4-triazine]	62.6
